Measurements reported in patent publication US10940216B2, “Cyclic peptides with enhanced nerve-binding selectively, nanoparticles bound with said cyclic peptides, and use of same for real-time in vivo nerve tissue imaging” (Memorial Sloan Kettering Cancer Center, priority 2014, dated 2021).
Ends that are not written are not given here.

Assays:
[1] = Characterization of NBP-Cy5 conjugates and linear NBP-C′ dots by fluorescence correlation spectroscopy (FCS); format: physicochemical
Protocol: Similarly, cyclic peptide(s) can be bound to nanoparticles for improved quantum enhancement and FCS brightness over the non-bound cyclic peptide.
Measurements were determined from fluorescence correlation spectroscopy (FCS).
The linear nerve binding polypeptide (NBP) NP41 was incorporated onto C′ dots using a PEG linker moiety.

sciatic nerve = test: In vivo optical imaging of sciatic nerve and adjacent muscle after iv injection of peptide-dye conjugates; conditions: nude mouse; for fluorescence signal at 30 min as percentage of post-injection/initial signal: 150 nmole iv
Protocol: FIGS. 13A-13E show in vivo time-dependent uptake from sciatic nerve and muscle post-iv injection of 17 AA cyclic peptide-dye conjugates using optical imaging. 17 AA cyclic peptide-dye conjugates (Cy5 labeled) were injected intravenously (400 nmole) into the tail veins of nude mouse prior to surgical exposure and imaging of sciatic nerves and adjacent muscle using a Zeiss Lumar stereomicroscope (0.8× objective) with fluorescence imaging capabilities. Pre- and serial post injection (p.i.) images (bright field, fluorescent) were acquired at 8 times points from 15 min to 240 min p.i. Bars indicate mean+/−standard deviation. N=5 per group. Each replicate is from one biological experiment, quantified with five independent fields of view. Region of interest (ROI) analysis was performed over nerve and muscle regions to assess time-dependent signal changes. FIGS. 13A-13E show the absolute and relative fluorescence signal (e.g., percentage of the initial fluorescence signal acquired at 15 min p.i.) of nerves (FIGS. 13A and […]) and adjacent muscle (FIGS. 13B and 13D), respectively.
FIGS. 14A and 14B show in vivo time-dependent uptake from sciatic nerve and muscle post-iv injection of 17 AA linear peptide-dye conjugates using optical imaging. 17 AA linear peptide-dye conjugates (Cy5 labeled) were injected intravenously (150 nmole) into the tail veins of nude mouse prior to surgical exposure and imaging of sciatic nerves and adjacent muscle using a Zeiss Lumar stereomicroscope (0.8× objective) with fluorescence imaging capabilities. Pre- and serial post injection (p.i.) images (bright field, fluorescent) were acquired at 6 times points (15 min-150 min) p.i. Bars indicate mean+/−standard deviation. N=5 per group.
FIGS. 16A-16E show in vivo time-dependent uptake from sciatic nerve and muscle post-iv injection of 17 AA cyclic peptide-dye conjugates using optical imaging. 17 AA cyclic peptide-dye conjugates (Cy5 labeled) were injected intravenously (150 nmole) into the tail veins of nude mouse prior to surgical exposure and imaging of sciatic nerves and adjacent muscle using a Zeiss Lumar stereomicroscope (0.8× objective) with fluorescence imaging capabilities. Pre- and serial post injection (p.i.) images (bright field, fluorescent) were acquired at 6 time points (15 min-150 min) p.i. Bars indicate mean+/−standard deviation. N=5 per group. Each replicate is from one biological experiment, quantified with five independent fields of view. Region of interest (ROI) analysis was performed over nerve and muscle regions to assess time-dependent signal changes. FIGS. 16A-16D show the absolute and relative fluorescence signal (percentage of the initial fluorescence signal acquired at 15 min p.i.) of nerves (FIGS. 16A and 16C) and adjacent muscle (FIGS. 16B and 16D), respectively.

| Compound | # of Cy5 per particles [1] | # of NBP per particles [1] | Hydrodynamic Diameter [1] | PCS Brightness [1] | Quantum Enhancement [1] | fluorescence signal at 30 min as percentage of post-injection/initial signal (sciatic nerve; listed as 17 AA linear peptide-dye conjugates) | fluorescence signal at 30 min as percentage of post-injection/initial signal (sciatic nerve; listed as linear peptide) | duration of detectable signal after administration (in words) (sciatic nerve; iv) | nerve-to-muscle or contrast ratios over time (in words) (sciatic nerve; iv, listed as linear peptide) | nerve-to-muscle or contrast ratios over time (in words) (sciatic nerve; iv, listed as linear peptide-dye conjugate) |
| --- | --- | --- | --- | --- | --- | --- | --- | --- | --- | --- |
| Ac-SHSNTQTLAKAPEHTGC (also: Cy5 label, site not given here) [LinearNBP-Cy5] | 1 | 1 | 2.4 nm | 8.9 kHz | 0.9 | about 15% | 10% | barely perceptible thereafter | does not demonstrate as high ratios | roughly equivalent over the first 30 min |
| CCN1/C(=C/C=C/C=C/C2=[N+](CCCCCC(=O)O)c3ccc(S(=O)(=O)O)cc3C2(C)C)C(C)(C)c2cc(S(=O)(=O)[O-])ccc21 [Cy5] | 1 | – | 1.4 nm | 9.2 kHz | 1 | – | – | – | – | – |
